Experimental data published in PubChem BioAssay AID270 (DTP/NCI, 2004).
Values joined by “and” are separate entries in the source; they are usually repeats but may differ in a detail not shown here. Identical values can stand only once. Records with an inconclusive call do not appear.

Test system: BDF1 mice, s.c. Lewis lung carcinoma, T/C %
Assay: NCI In Vivo Anticancer Drug Screen. Data for tumor model Lewis Lung Carcinoma (subcutaneous) in B6D2F1 (BDF1) mice
Procedure, shortened: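 Antitumor effect in vivo is scored from survival or tumor burden, reported as treated relative to vehicle controls.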

[1] = endpoint: median survival time, dose: 12.5 mg/kg/injection, schedule: Q01DX009 (ip), vehicle: Klucel (hydroxypropylcellulose) (HPC), higher = longer survival
[2] = endpoint: median survival time, dose: 25.0 mg/kg/injection, schedule: Q01DX009 (ip), vehicle: Klucel (hydroxypropylcellulose) (HPC), higher = longer survival
[3] = endpoint: mean tumor weight, dose: 1.0 mg/kg/injection, schedule: Q01DX011 (ip), vehicle: carboxymethylcellulose (CMC), higher = larger tumour
[4] = endpoint: median survival time, dose: 6.25 mg/kg/injection, schedule: Q01DX009 (ip), vehicle: Klucel (hydroxypropylcellulose) (HPC), higher = longer survival

CC1(c2ccc(N(CCCl)CCCl)cc2)NC(=O)NC1=O (stereo not drawn)
T/C [1]: 111 % of control
T/C [2]: 91 % of control
T/C (endpoint: median survival time, dose: 50.0 mg/kg/injection, schedule: Q01DX009 (ip), vehicle: Klucel (hydroxypropylcellulose) (HPC), higher = longer survival): 98 % of control
T/C (endpoint: median survival time, dose: 100.0 mg/kg/injection, schedule: Q01DX009 (ip), vehicle: Klucel (hydroxypropylcellulose) (HPC), higher = longer survival): 115 % of control

CC(=O)OC/C=C(C)/C=C/C=C(C)/C=C/C1=C(C)CCCC1(C)C
T/C (endpoint: median survival time, dose: 200.0 mg/kg/injection, schedule: Q01DX005 (ip), vehicle: saline with Tween-80, higher = longer survival): 100 % of control

CNC(=S)N/N=C/c1ccc([N+](=O)[O-])s1
T/C (endpoint: median survival time, dose: 25.0 mg/kg/injection, schedule: Q01DX009 (ip), vehicle: saline with Tween-80, higher = longer survival): 121 % of control

CCC1/C=C/C=C/CC(C)C(O)C(C)(O)C(=O)C(C)C(O)C(C)C(=O)C(C)C(O)C(C)/C=C/C(=O)OC2C(C)C(CC1)OC1(OC(CC(C)O)C(C)CC1=O)C2C (stereo not drawn) (tested in a mixture with another compound)
T/C (endpoint: mean tumor weight, dose: 2.0 mg/kg/injection, schedule: Q01DX011 (ip), vehicle: saline, higher = larger tumour): 106 % of control
T/C (endpoint: mean tumor weight, dose: 4.0 mg/kg/injection, schedule: Q01DX011 (ip), vehicle: saline, higher = larger tumour): 94 % of control
T/C (endpoint: mean tumor weight, dose: 8.0 mg/kg/injection, schedule: Q01DX011 (ip), vehicle: saline, higher = larger tumour): 82 % of control

C[C@]12CC[C@H](OC3OC(CO)C(O)C(O)C3O)C[C@H]1CC[C@@H]1[C@@H]2CC[C@]2(C)[C@@H](C3=CCOC3=O)CC[C@]12O (stereo partly drawn)
T/C (endpoint: mean tumor weight, dose: 0.25 mg/kg/injection, schedule: Q01DX011 (ip), vehicle: carboxymethylcellulose (CMC), higher = larger tumour): 33 % of control
T/C (endpoint: mean tumor weight, dose: 0.25 mg/kg/injection, schedule: Q01DX011 (ip), vehicle: saline, higher = larger tumour): 41 % of control
T/C (endpoint: mean tumor weight, dose: 0.5 mg/kg/injection, schedule: Q01DX011 (ip), vehicle: carboxymethylcellulose (CMC), higher = larger tumour): 47 % of control
T/C (endpoint: mean tumor weight, dose: 0.5 mg/kg/injection, schedule: Q01DX011 (ip), vehicle: saline, higher = larger tumour): 16 % of control
T/C [3]: 14 % of control

C[C@]12CC[C@H]3[C@@H](CC[C@]4(O)C[C@@H](O)CC[C@]34/C=N/O)[C@@]1(O)CC[C@@H]2C1=COC(=O)C1
T/C (endpoint: mean tumor weight, dose: 1.87 mg/kg/injection, schedule: Q01DX011 (ip), vehicle: carboxymethylcellulose (CMC), higher = larger tumour): 34 % of control
T/C (endpoint: mean tumor weight, dose: 3.75 mg/kg/injection, schedule: Q01DX011 (ip), vehicle: carboxymethylcellulose (CMC), higher = larger tumour): 58 % of control
T/C (endpoint: mean tumor weight, dose: 15.0 mg/kg/injection, schedule: Q01DX011 (ip), vehicle: carboxymethylcellulose (CMC), higher = larger tumour): 92 % of control
T/C (endpoint: mean tumor weight, dose: 30.0 mg/kg/injection, schedule: Q01DX011 (ip), vehicle: carboxymethylcellulose (CMC), higher = larger tumour): 61 % of control

COc1cc([C@@H]2c3cc4c(cc3[C@H](O)[C@H]3COC(=O)[C@H]23)OCO4)cc(OC)c1OC
T/C [3]: 84 % of control
T/C (endpoint: mean tumor weight, dose: 2.0 mg/kg/injection, schedule: Q01DX011 (ip), vehicle: carboxymethylcellulose (CMC), higher = larger tumour): 36 % of control

CCOc1ccccc1C1N(Cc2ccc(OC)cc2)CCCN1Cc1ccc(OC)cc1
T/C (endpoint: mean tumor weight, dose: 74.0 mg/kg/injection, schedule: Q01DX011 (ip), vehicle: other, higher = larger tumour): 103 % of control
T/C (endpoint: mean tumor weight, dose: 111.0 mg/kg/injection, schedule: Q01DX011 (ip), vehicle: other, higher = larger tumour): 93 % of control
T/C (endpoint: mean tumor weight, dose: 166.0 mg/kg/injection, schedule: Q01DX011 (ip), vehicle: other, higher = larger tumour): 93 % of control

O=P(Oc1ccccc1)(Oc1ccccc1)c1ccccc1
T/C (endpoint: mean tumor weight, dose: 133.0 mg/kg/injection, schedule: Q01DX011 (ip), vehicle: other, higher = larger tumour): 75 % of control
T/C (endpoint: mean tumor weight, dose: 200.0 mg/kg/injection, schedule: Q01DX011 (ip), vehicle: other, higher = larger tumour): 91 % of control

Nc1ncn(C2CC(O)C(CO)O2)c(=O)n1 (stereo not drawn)
T/C (endpoint: median survival time, dose: 0.05 mg/kg/injection, schedule: Q01DX009 (ip), vehicle: saline, higher = longer survival): 102 % of control
T/C (endpoint: median survival time, dose: 0.1 mg/kg/injection, schedule: Q01DX009 (ip), vehicle: saline, higher = longer survival): 102 % of control and 109 % of control
T/C (endpoint: median survival time, dose: 0.2 mg/kg/injection, schedule: Q01DX009 (ip), vehicle: saline, higher = longer survival): 109 % of control and 112 % of control
T/C (endpoint: median survival time, dose: 0.8 mg/kg/injection, schedule: Q01DX009 (ip), vehicle: Klucel (hydroxypropylcellulose) (HPC), higher = longer survival): 167 % of control

CC[CH2][Pb]([Cl])([CH2]CC)[CH2]CC
T/C (endpoint: median survival time, dose: 0.01 mg/kg/injection, schedule: Q01DX009 (ip), vehicle: DMSO, higher = longer survival): 101 % of control
T/C (endpoint: median survival time, dose: 0.02 mg/kg/injection, schedule: Q01DX009 (ip), vehicle: DMSO, higher = longer survival): 93 % of control
T/C (endpoint: median survival time, dose: 0.04 mg/kg/injection, schedule: Q01DX009 (ip), vehicle: DMSO, higher = longer survival): 98 % of control
T/C (endpoint: median survival time, dose: 0.04 mg/kg/injection, schedule: Q01DX009 (ip), vehicle: Klucel (hydroxypropylcellulose) (HPC), higher = longer survival): 94 % of control
T/C (endpoint: median survival time, dose: 0.08 mg/kg/injection, schedule: Q01DX009 (ip), vehicle: DMSO, higher = longer survival): 107 % of control
T/C (endpoint: median survival time, dose: 0.09 mg/kg/injection, schedule: Q01DX009 (ip), vehicle: Klucel (hydroxypropylcellulose) (HPC), higher = longer survival): 106 % of control
T/C (endpoint: median survival time, dose: 0.18 mg/kg/injection, schedule: Q01DX009 (ip), vehicle: Klucel (hydroxypropylcellulose) (HPC), higher = longer survival): 100 % of control
T/C (endpoint: median survival time, dose: 0.37 mg/kg/injection, schedule: Q01DX009 (ip), vehicle: DMSO, higher = longer survival): 108 % of control
T/C (endpoint: median survival time, dose: 0.37 mg/kg/injection, schedule: Q01DX009 (ip), vehicle: Klucel (hydroxypropylcellulose) (HPC), higher = longer survival): 104 % of control

N#CCC(=O)O
T/C (endpoint: mean tumor weight, dose: 29.0 mg/kg/injection, schedule: Q01DX011 (ip), vehicle: saline, higher = larger tumour): 103 % of control
T/C (endpoint: mean tumor weight, dose: 44.0 mg/kg/injection, schedule: Q01DX011 (ip), vehicle: saline, higher = larger tumour): 104 % of control
T/C (endpoint: mean tumor weight, dose: 66.0 mg/kg/injection, schedule: Q01DX011 (ip), vehicle: other, higher = larger tumour): 47 % of control
T/C (endpoint: mean tumor weight, dose: 66.0 mg/kg/injection, schedule: Q01DX011 (ip), vehicle: saline, higher = larger tumour): 64 % of control

CN(C)c1ccc(/C=C\c2ccnc3ccccc23)cc1
T/C (endpoint: mean tumor weight, dose: 1.25 mg/kg/injection, schedule: Q01DX011 (ip), vehicle: other, higher = larger tumour): 103 % of control
T/C (endpoint: mean tumor weight, dose: 2.5 mg/kg/injection, schedule: Q01DX011 (ip), vehicle: other, higher = larger tumour): 84 % of control
T/C (endpoint: mean tumor weight, dose: 5.0 mg/kg/injection, schedule: Q01DX011 (ip), vehicle: other, higher = larger tumour): 75 % of control
T/C (endpoint: mean tumor weight, dose: 10.0 mg/kg/injection, schedule: Q01DX011 (ip), vehicle: other, higher = larger tumour): 71 % of control and 83 % of control
T/C (endpoint: mean tumor weight, dose: 20.0 mg/kg/injection, schedule: Q01DX011 (ip), vehicle: other, higher = larger tumour): 54 % of control and 68 % of control

c1ccc2cc3c(cc2c1)Cn1c-3nc2ccccc21
T/C (endpoint: mean tumor weight, dose: 50.0 mg/kg/injection, schedule: Q01DX011 (ip), vehicle: carboxymethylcellulose (CMC), higher = larger tumour): 64 % of control
T/C (endpoint: mean tumor weight, dose: 55.0 mg/kg/injection, schedule: Q01DX011 (ip), vehicle: carboxymethylcellulose (CMC), higher = larger tumour): 33 % of control and 48 % of control
T/C (endpoint: mean tumor weight, dose: 80.0 mg/kg/injection, schedule: Q01DX011 (ip), vehicle: carboxymethylcellulose (CMC), higher = larger tumour): 52 % of control
T/C (endpoint: mean tumor weight, dose: 100.0 mg/kg/injection, schedule: Q01DX011 (ip), vehicle: carboxymethylcellulose (CMC), higher = larger tumour): 23 % of control
T/C (endpoint: mean tumor weight, dose: 120.0 mg/kg/injection, schedule: Q01DX011 (ip), vehicle: carboxymethylcellulose (CMC), higher = larger tumour): 26 % of control
T/C (endpoint: mean tumor weight, dose: 180.0 mg/kg/injection, schedule: Q01DX011 (ip), vehicle: carboxymethylcellulose (CMC), higher = larger tumour): 34 % of control
T/C (endpoint: mean tumor weight, dose: 200.0 mg/kg/injection, schedule: Q01DX011 (ip), vehicle: carboxymethylcellulose (CMC), higher = larger tumour): 37 % of control
T/C (endpoint: mean tumor weight, dose: 400.0 mg/kg/injection, schedule: Q01DX011 (ip), vehicle: carboxymethylcellulose (CMC), higher = larger tumour): 38 % of control

NC(=O)c1ccc(NC(=O)CCC(=O)Nc2ccc(C(N)=O)cn2)nc1
T/C (endpoint: mean tumor weight, dose: 1.25 mg/kg/injection, schedule: Q01DX011 (ip), vehicle: carboxymethylcellulose (CMC), higher = larger tumour): 54 % of control
T/C (endpoint: mean tumor weight, dose: 2.5 mg/kg/injection, schedule: Q01DX011 (ip), vehicle: carboxymethylcellulose (CMC), higher = larger tumour): 24 % of control

O=NN(CCCl)C(=O)NC1CCCC1
T/C (endpoint: median tumor weight (est.), dose: 33.0 mg/kg/injection, schedule: Q01DX001 (ip), vehicle: saline, higher = larger tumour): 62 % of control
T/C (endpoint: median tumor weight (est.), dose: 67.0 mg/kg/injection, schedule: Q01DX001 (ip), vehicle: saline, higher = larger tumour): 76 % of control
T/C (endpoint: median tumor weight (est.), dose: 100.0 mg/kg/injection, schedule: Q01DX001 (ip), vehicle: saline, higher = larger tumour): 56 % of control

O=C(O)C(=O)O.[U]
T/C (endpoint: mean tumor weight, dose: 5.0 mg/kg/injection, schedule: Q01DX011 (ip), vehicle: carboxymethylcellulose (CMC), higher = larger tumour): 37 % of control
T/C (endpoint: mean tumor weight, dose: 10.0 mg/kg/injection, schedule: Q01DX011 (ip), vehicle: carboxymethylcellulose (CMC), higher = larger tumour): 55 % of control and 78 % of control
T/C (endpoint: mean tumor weight, dose: 10.0 mg/kg/injection, schedule: Q01DX011 (ip), vehicle: saline, higher = larger tumour): 42 % of control
T/C (endpoint: mean tumor weight, dose: 20.0 mg/kg/injection, schedule: Q01DX011 (ip), vehicle: saline, higher = larger tumour): 27 % of control
T/C (endpoint: median survival time, dose: 4.0 mg/kg/injection, schedule: Q01DX009 (ip), vehicle: Klucel (hydroxypropylcellulose) (HPC), higher = longer survival): 103 % of control
T/C (endpoint: median survival time, dose: 16.0 mg/kg/injection, schedule: Q01DX009 (ip), vehicle: Klucel (hydroxypropylcellulose) (HPC), higher = longer survival): 101 % of control

O=C1N(Br)C(=O)C(c2ccc(Cl)cc2)(c2ccc(Cl)cc2)N1Br
T/C (endpoint: median survival time, dose: 3.12 mg/kg/injection, schedule: Q01DX009 (ip), vehicle: Klucel (hydroxypropylcellulose) (HPC), higher = longer survival): 100 % of control
T/C [4]: 97 % of control
T/C [1]: 102 % of control
T/C [2]: 96 % of control

CC[CH2][Pb]([CH2]CC)([CH2]CC)[N]1C(=O)c2ccccc2C1=O
T/C (endpoint: median survival time, dose: 3.13 mg/kg/injection, schedule: Q01DX009 (ip), vehicle: Klucel (hydroxypropylcellulose) (HPC), higher = longer survival): 96 % of control
T/C [4]: 87 % of control
T/C [1]: 102 % of control
